In patent publication US12295936B2, “Immunomodulating urea azalides” (Zoetis Services LLC, priority 2020, dated 2025):
In brackets after ≈: the same amount, converted by molar mass.

How the values were obtained:
TNF-α = assay: LPS-stimulated whole bovine blood assay, MSD cytokine detection; assay type: cell-based; conditions: Bos taurus, LPS-stimulated bovine whole blood; read-out: TNF-α (IC50 μM)
IL-1β = assay: as above; assay type: cell-based; conditions: overstimulation of IL-1β, LPS-stimulated bovine whole blood
IL-6 = assay: as above; assay type: cell-based; conditions: Bos taurus, LPS-stimulated bovine whole blood; read-out: IL-6 (IC50 μM)
From the text: In order to correlate RNA sequencing data to cytokine changes the whole blood assay was utilized. […] The enhancement result represents an overall stimulation of cytokine levels due to cellular stress or potential toxicity with increasing concentrations of the compound, representing a typical bell shape response curve for immunomodulatory activity.

P. multocida 46572 = assay: In vivo mouse lung infection challenge model (murine efficacy); set-up: species or system CD-1 female mice; conditions: 20 mg/kg subcutaneous, P. multocida challenge; harmonized against the comparative vehicle survival rate
Method: The challenge organism was P. multocida 46572. Target challenge concentration was 5×10^2 CFU/mouse. Isolated colonies from overnight growth (37° C. with 5% CO2) on trypticase soy agar (TSA II) blood plates were transferred to room temperature Brain Heart Infusion Broth (BHIB). The broth culture was incubated 3.5-4 hours to approximately mid-log phase of growth, as measured by forward light scatter at 600 nm (OD600, 0.200). The culture was centrifuged to collect the bacterial pellet. The pellet was re-suspended in BHIB and adjusted to provide an approximate concentration of 2.7 log^10 colony forming units (CFU) in 0.04 mL at the highest concentration. The challenge inoculum concentration was confirmed by serial dilutions of the inoculum for CFU enumeration. On Day −5, CD-1 female mice were received. Mice were given standard rodent diet and water ad libitum. On Day 0, bacterial inoculum (0.04 mL) was administered to each mouse (n=36) intranasally. Compounds of the invention were dosed at 20 mg/kg (0.1 mL) in a buffered (˜pH 5.4) propylene glycol, monothioglycerol and water solution by subcutaneous injection. Animals were observed from Days 1-10. The study was terminated on Day 10. In addition, some treatment groups were sampled at 6, 24, and 48 hours post bacterial challenge for RNA sequence analysis of lung tissue.
The murine efficacy model (P. multocida challenge) was optimized, and the treatment group size was powered to be able to observe statistically significant improvement of survival to expected ranges for immunomodulatory compounds. The experimental design was a randomized complete block design. Mice were individually identified and treatment groups comingled within a cage, with every treatment group equally represented across cages. Mortality was the primary variable. Mortality data was analyzed using a generalized mixed model with fixed effect of treatment and random effect of block. Survival time was also analyzed using the SAS PHREG (survival analysis) procedure to examine whether there were significant differences between treatment groups and the control group. Numerous compounds of the invention and M9 (positive control) were tested in this model at a dose of 20 mg/kg. Typical percent survival for no treatment control is in the range of 0-20% based on study to study variation in challenge inoculum and rate of infection. […] Mouse survival for M9 was about 90-100%, further supporting its antibacterial properties against the bacterial strain (Table 3). Survival values presented are harmonized against the comparative vehicle survival rate.

[1] = tested on: BRD pathogens, M. haemolytica and P. multocida; assay: MIC screening panel of BRD pathogens (antibacterial / non-antibacterial); conditions: read-out: antibacterial / non-antibacterial (MIC for the BRD pathogens)
P. multocida [2] = assay: Murine P. multocida intranasal challenge study with lung tissue RNA sequence analysis; assay type: in vivo, mice; conditions: subcutaneous 18 hours after challenge (5×10^3 CFU/mouse): tulathromycin 16 mg/kg, M9 32 mg/kg, ceftiofur 9 mg/kg; placebo 0%
Method: In one murine P. multocida intranasal challenge study, mice were administered tulathromycin (16 mg/kg; T02), M9 (32 mg/kg; T03), or ceftiofur (9 mg/kg; T04) by subcutaneous injection 18 hours after bacterial challenge (5×10^3 CFU/mouse) for lung tissue RNA sequence analysis. Survival at Day 7 was about 80%, 50%, and 90% for T02, T03, and T04, respectively, compared to placebo at 0%. Differential gene expression from total lung tissue RNA sequence analysis indicated at least 226 unique genes were up or down regulated (with significance) for T03. Output from ingenuity pathway analysis of these unique genes predicted major upstream regulators of the involved pathways. Data was analyzed based on the number of genes being modulated in the same direction that were associated with a given upstream regulator. An activation z-score of 2 or greater is considered significant and the direction change is indicated by +(activated) or − (inhibited). The top 5 pathways included: IL-9 signaling, glucocorticoid receptor signaling, prolactin signaling, JAK STAT signaling, and IL-17 signaling. The top 6 upstream regulators (activation z-score) included: lipopolysaccharide (−6.725), TNF (−4.669), IFNG (−5.759), IL-1β (−5.947), STAT1 (−2.787), and poly rl:rC-RNA (−5.289). Even though this study was run in the murine model, the top upstream regulators identified as being modulated by M9 include an almost ubiquitous overlap with the pathways identified in the natural disease study as being key mediators in BRD, and therefore is modulating highly relevant pathways in BRD pathobiology.

H. somni = assay: In-vitro MIC model (CLSI broth micro-dilution)
M. haemolytica = assay: In-vitro MIC model (CLSI broth micro-dilution)
P. multocida [3] = assay: In-vitro MIC model (CLSI broth micro-dilution)
[4] = M. haemolytica (116) lung isolates at necropsy, natural BRD study
[5] = P. multocida (33) lung isolates at necropsy, natural BRD study
[6] = H. somni (25) lung isolates at necropsy, natural BRD study

| SMILES | IC50 (TNF-α) [µM] | IL-1β OS of LPS (IL-1β) [µM] | IC50 (IL-6) [µM] | Mouse Murine Percent Survival (P. multocida 46572) [%] | MIC [1] [µg/mL] | also measured |
| --- | --- | --- | --- | --- | --- | --- |
| CCCNC[C@]1(O)[C@H](C)O[C@@H](O[C@H]2[C@H](C)[C@@H](O[C@@H]3O[C@H](C)C[C@H](N(C)C(=O)N(C)c4ccc(C(F)(F)F)cc4)[C@H]3O)[C@](C)(O)C[C@@H](C)CN[C@H](C)[C@@H](O)[C@](C)(O)[C@@H](CC)OC(=O)[C@@H]2C)C[C@@]1(C)OC [Example H-13, 1-((2S,3R,4S,6R)-2-(((2R,3S,4R,5R,8R,10R,11R,12S,13S,14R)-2-ethyl-3,4,10-trihydroxy-13-(((2R,4R,5S,6S)-5-hydroxy-4-methoxy-4,6-dimethyl-5-((propylamino)methyl)tetrahydro-2H-pyran-2-yl)oxy)-3,5,8,10,12,14-hexamethyl-15-oxo-1-oxa-6-azacyclopentadecan-11-yl)oxy)-3-hydroxy-6-methyltetrahydro-2H-pyran-4-yl)-1,3-dimethyl-3-(4-(trifluoromethyl)phenyl)urea] | 12 | 6 | 9 | 59 | > 64 | – |
| CCCNC[C@]1(O)[C@H](C)O[C@@H](O[C@H]2[C@H](C)[C@@H](O[C@@H]3O[C@H](C)C[C@H](N(C)C(=O)N(c4ccccc4)c4ccccc4)[C@H]3O)[C@](C)(O)C[C@@H](C)CN[C@H](C)[C@@H](O)[C@](C)(O)[C@@H](CC)OC(=O)[C@@H]2C)C[C@@]1(C)OC [Example H-39, 1-((2S,3R,4S,6R)-2-(((2R,3S,4R,5R,8R,10R,11R,12S,13S,14R)-2-ethyl-3,4,10-trihydroxy-13-(((2R,4R,5S,6S)-5-hydroxy-4-methoxy-4,6-dimethyl-5-((propylamino)methyl)tetrahydro-2H-pyran-2-yl)oxy)-3,5,8,10,12,14-hexamethyl-15-oxo-1-oxa-6-azacyclopentadecan-11-yl)oxy)-3-hydroxy-6-methyltetrahydro-2H-pyran-4-yl)-1-methyl-3,3-diphenylurea] | 21 | 6 | 19 | 44 | > 64 | – |
| CCCNC[C@]1(O)[C@H](C)O[C@@H](O[C@H]2[C@H](C)[C@@H](O[C@@H]3O[C@H](C)C[C@H](N(Cc4ccc(OC)cc4)C(=O)N(C)c4ccccc4)[C@H]3O)[C@](C)(O)C[C@@H](C)CN[C@H](C)[C@@H](O)[C@](C)(O)[C@@H](CC)OC(=O)[C@@H]2C)C[C@@]1(C)OC [Example H-60, 1-((2S,3R,4S,6R)-2-(((2R,3S,4R,5R,8R,10R,11R,12S,13S,14R)-2-ethyl-3,4,10-trihydroxy-13-(((2R,4R,5S,6S)-5-hydroxy-4-methoxy-4,6-dimethyl-5-((propylamino)methyl)tetrahydro-2H-pyran-2-yl)oxy)-3,5,8,10,12,14-hexamethyl-15-oxo-1-oxa-6-azacyclopentadecan-11-yl)oxy)-3-hydroxy-6-methyltetrahydro-2H-pyran-4-yl)-1-(4-methoxybenzyl)-3-methyl-3-phenylurea] | 5 | 3 | 7 | 72 | > 64 | – |
| CCCNC[C@]1(O)[C@H](C)O[C@@H](O[C@H]2[C@H](C)[C@@H](O[C@@H]3O[C@H](C)C[C@H](N(C)C(=O)N(C)c4ccc(C(F)(F)F)cc4)[C@H]3O)[C@](C)(O)C[C@@H](C)CN(C)[C@H](C)[C@@H](O)[C@](C)(O)[C@@H](CC)OC(=O)[C@@H]2C)C[C@@]1(C)OC [Example H-100, 1-((2S,3R,4S,6R)-2-(((2R,3S,4R,5R,8R,10R,11R,12S,13S,14R)-2-ethyl-3,4,10-trihydroxy-13-(((2R,4R,5S,6S)-5-hydroxy-4-methoxy-4,6-dimethyl-5-((propylamino)methyl)tetrahydro-2H-pyran-2-yl)oxy)-3,5,6,8,10,12,14-heptamethyl-15-oxo-1-oxa-6-azacyclopentadecan-11-yl)oxy)-3-hydroxy-6-methyltetrahydro-2H-pyran-4-yl)-1,3-dimethyl-3-(4-(trifluoromethyl)phenyl)urea] | 6 | 16 | 10 | 19 | > 64 | – |
| CC[C@H]1OC(=O)[C@H](C)[C@@H](O[C@H]2C[C@@](C)(OC)[C@](O)(CN3CC(N4CCOCC4)C3)[C@H](C)O2)[C@H](C)[C@@H](O[C@@H]2O[C@H](C)C[C@H](N(C)C(=O)N(C)c3ccccc3)[C@H]2O)[C@](C)(O)C[C@@H](C)CN[C@H](C)[C@@H](O)[C@]1(C)O [Example J-4, 1-((2S,3R,4S,6R)-2-(((2R,3S,4R,5R,8R,10R,11R,12S,13S,14R)-2-ethyl-3,4,10-trihydroxy-13-(((2R,4R,5S,6S)-5-hydroxy-4-methoxy-4,6-dimethyl-5-((3-morpholinoazetidin-1-yl)methyl)tetrahydro-2H-pyran-2-yl)oxy)-3,5,8,10,12,14-hexamethyl-15-oxo-1-oxa-6-azacyclopentadecan-11-yl)oxy)-3-hydroxy-6-methyltetrahydro-2H-pyran-4-yl)-1,3-dimethyl-3-phenylurea] | 7 | 1 | 3 | 5 | > 64 | – |
| CO/N=C(\C(=O)N[C@@H]1C(=O)N2C(C(=O)O)=C(CSC(=O)c3ccco3)CS[C@H]12)c1csc(N)n1 [ceftiofur] | – | – | – | – | – | Survival at Day 7 (P. multocida [2]): ~90% |
| CCN1CCN(c2cc3c(cc2F)c(=O)c(C(=O)O)cn3C2CC2)CC1 [enrofloxacin] | – | – | – | – | – | MIC (H. somni; Histophilus somni): 0.06 to 1 µg/mL (≈ 0.167 to 2.78 µM) |
| CS(=O)(=O)c1ccc([C@@H](O)[C@@H](CF)NC(=O)C(Cl)Cl)cc1 [florfenicol] | – | – | – | – | – | MIC (H. somni; Histophilus somni): 0.12 to 2 µg/mL (≈ 0.335 to 5.58 µM) |
| CCCN1C[C@H](C)[C@@H](O)[C@](C)(O)[C@@H](CC)OC(=O)[C@H](C)[C@@H](O[C@H]2C[C@@](C)(OC)[C@@H](O)[C@H](C)O2)[C@H](C)[C@@H](O[C@@H]2O[C@H](C)C[C@H](N(C)C)[C@H]2O)[C@](C)(O)C[C@H]1C [gamithromycin (Zactran)] | – | – | – | – | – | MIC50 (M. haemolytica; [4]): 1 µg/mL (≈ 1.29 µM); MIC90 (M. haemolytica; [4]): >64 µg/mL; MIC50 (P. multocida [3]; [5]): 1 µg/mL (≈ 1.29 µM); MIC90 (P. multocida [3]; [5]): >64 µg/mL; MIC50 (H. somni; [6]): 0.25 µg/mL (≈ 0.322 µM); MIC90 (H. somni; [6]): 2 µg/mL (≈ 2.57 µM); MIC Range (H. somni; [6]): 0.12 to 2 µg/mL |
| CCCN1C[C@H](C)[C@@H](O)[C@](C)(O)[C@@H](CC)OC(=O)[C@H](C)[C@@H](O[C@H]2C[C@@](C)(OC)[C@@H](O)[C@H](C)O2)[C@H](C)[C@@H](O[C@@H]2O[C@H](C)C[C@H](N(C)C)[C@H]2O)[C@](C)(O)C[C@H]1C [gamithromycin] | – | – | – | – | – | MIC (M. haemolytica; 25 different strains of M. haemolytica): 0.5 to 1 µg/mL; MIC (P. multocida [3]; 25 different strains of P. multocida): 1 to 2 µg/mL; MIC (H. somni; H. somni (31 strains)): 0.25 to 8 µg/mL |
